# Experimental data as given in patent publication US20030166601A1, “Novel colloid synthetic vectors for gene therapy” (priority 1999, published 2003).
# Tests used:
# [1] = test system: CD-1 mice; experiment: Luciferase expression in organs after intravenous injection of pCILuc complexes; type: in vivo; settings: for Luciferase RLU/20 ul lysate heart / Luciferase RLU/20 ul lysate kidney / Luciferase RLU/20 ul lysate liver / Luciferase RLU/20 ul lysate lung / Luciferase RLU/20 ul lysate spleen / Luciferase RLU/20 μl lysate heart / Luciferase RLU/20 μl lysate kidney / Luciferase RLU/20 μl lysate liver / Luciferase RLU/20 μl lysate lung / Luciferase RLU/20 μl lysate spleen: 40 μg pCILuc i.v., 5 h
# Experimental: Substituted aminoethanols (cationic compounds) were prepared as described in Examples 1-34. Their gene delivery ability was studied in vivo by intravenous injection (Table 1 and 2) using a standard method. The preparations were administered via tail vein injection to mice and gene expression determined after 5 hours. Female CD-1 mice, 13-15 g, were purchased from Charles River Inc. Forty microgram of pCILuc complexed with GC lipids or GC lipid:Chol dispersion as indicated weight ratios. After 5 h, mice were sacrificed and organs were collected. Organs were homogenized in 0.5 ml of lysis buffer and 20 μl of supernatant was used for luciferase assay. Luciferase activity was represented as a mean of relative light unit (RLU) of four mice. The lipids were either used alone or combined with cholesterol and complexed with a luciferase reporter gene plasmid by a standard procedure at a range of weight and charge ratios. For the in vivo screen, 40 μg of pCILuc was complexed with the formulation and injected into the mice.
# All compounds were evaluated for in vivo activity. Two critical factors were examined, formulation with or without cholesterol and the ratio of cationic lipid to DNA. Cholesterol was tested at 1:1 mole ratio of lipid:chol. The studies were performed with a dose of 40 μg of pCILuc complexed with cationic lipid or lipid: Chol (1:1 mole ratio) injected i.v. into CD-1 mice and then luciferase activity in different organs determined 5 h later. The first evaluation included all of 14 GC-lipids at weight ratios of 2 and 10 (GC lipid to DNA). It was performed by four separated experiments. Each time cationic liposome DOTAP:Chol was used as a standard control.
# Measurements were repeated with lipids GC-030, GC-034 and GC-029 at wider weight ratios than the first experiment. Luciferase activity is represented as a mean of relative light unit (RLU) of four mice. WR means weight ratio of GC lipids to DNA. The transfection activity was represented by luciferase activity RLU/organ. […] The transfection activity increased with the increased weight ratio (GC lipids to DNA). Inclusion of cholesterol can change the biodistribution of gene expression in the different organs examined. […] However this function of cholesterol was not seen with GC-034.
# [2] = test system: cultured cells; experiment: Transfection of cultured cells, luciferase activity; type: cell-based
# From the text: The gene delivery ability of substituted aminoethanols with long chain hydrocarbon (aliphatic) substitutients was studied by transfection of cultured cells and then in vivo by intravenous injection (Table 2 and 3). The substituted aminoethanols have two hydrophilic polar heads connected with one hydrophobic body, which was named bihead lipids. Bihead lipids are proposed to form a monolayer membrane.
smiles,measurement,setting,value
CCCCCCCCCCCCCCC(O)CN(CCCN)CCCCCCCCCCCCCN(CCCN)CC(O)CCCCCCCCCCCCCC (stereo not drawn) [CGP44015A],Luciferase RLU/20 ul lysate heart,[1]; CR 0.5,74 RLU/20 ul lysate
same,Luciferase RLU/20 ul lysate kidney,[1]; CR 0.5,72 RLU/20 ul lysate
same,Luciferase RLU/20 ul lysate liver,[1]; CR 0.5,86 RLU/20 ul lysate
same,Luciferase RLU/20 ul lysate lung,[1]; CR 0.5,82 RLU/20 ul lysate
same,Luciferase RLU/20 ul lysate spleen,[1]; CR 0.5,80 RLU/20 ul lysate
same,Luciferase RLU/20 ul lysate heart,[1]; CR 1,73 RLU/20 ul lysate
same,Luciferase RLU/20 ul lysate kidney,[1]; CR 1,71 RLU/20 ul lysate
same,Luciferase RLU/20 ul lysate liver,[1]; CR 1,219 RLU/20 ul lysate
same,Luciferase RLU/20 ul lysate lung,[1]; CR 1,95 RLU/20 ul lysate
same,Luciferase RLU/20 ul lysate spleen,[1]; CR 1,168 RLU/20 ul lysate
same,Luciferase RLU/20 ul lysate heart,[1]; CR 4,379 RLU/20 ul lysate
same,Luciferase RLU/20 ul lysate kidney,[1]; CR 4,528 RLU/20 ul lysate
same,Luciferase RLU/20 ul lysate liver,[1]; CR 4,"3,817 RLU/20 ul lysate"
same,Luciferase RLU/20 ul lysate lung,[1]; CR 4,"19,717 RLU/20 ul lysate"
same,Luciferase RLU/20 ul lysate spleen,[1]; CR 4,"4,778 RLU/20 ul lysate"
same,Luciferase RLU/20 ul lysate heart,[1]; CR 10,103 RLU/20 ul lysate
same,Luciferase RLU/20 ul lysate kidney,[1]; CR 10,281 RLU/20 ul lysate
same,Luciferase RLU/20 ul lysate liver,[1]; CR 10,"1,283 RLU/20 ul lysate"
same,Luciferase RLU/20 ul lysate lung,[1]; CR 10,"4,470 RLU/20 ul lysate"
same,Luciferase RLU/20 ul lysate spleen,[1]; CR 10,"4,108 RLU/20 ul lysate"
same,Luciferase RLU/20 ul lysate heart,[1]; CR 20,75 RLU/20 ul lysate
same,Luciferase RLU/20 ul lysate kidney,[1]; CR 20,70 RLU/20 ul lysate
same,Luciferase RLU/20 ul lysate liver,[1]; CR 20,243 RLU/20 ul lysate
same,Luciferase RLU/20 ul lysate lung,[1]; CR 20,84 RLU/20 ul lysate
same,Luciferase RLU/20 ul lysate spleen,[1]; CR 20,69 RLU/20 ul lysate
same,expression in vivo by core complexes,"[1]; mouse, in vivo",exhibit expression in vivo
same,Luciferase activity Ave. RLU × 10000/well FBS(+),[2]; charge ratio (+/−) 0.5,130 RLU × 10000/well
same,Luciferase activity Ave. RLU × 10000/well FBS(−),[2]; charge ratio (+/−) 0.5,159 RLU × 10000/well
same,Luciferase activity Ave. RLU × 10000/well FBS(+),[2]; charge ratio (+/−) 1,"3,373 RLU × 10000/well"
same,Luciferase activity Ave. RLU × 10000/well FBS(−),[2]; charge ratio (+/−) 1,"3,252 RLU × 10000/well"
same,Luciferase activity Ave. RLU × 10000/well FBS(+),[2]; charge ratio (+/−) 2,"17,315 RLU × 10000/well"
same,Luciferase activity Ave. RLU × 10000/well FBS(−),[2]; charge ratio (+/−) 2,"17,063 RLU × 10000/well"
same,Luciferase activity Ave. RLU × 10000/well FBS(+),[2]; charge ratio (+/−) 4,"25,732 RLU × 10000/well"
same,Luciferase activity Ave. RLU × 10000/well FBS(−),[2]; charge ratio (+/−) 4,"24,484 RLU × 10000/well"
same,Luciferase activity Ave. RLU × 10000/well FBS(+),[2]; charge ratio (+/−) 6,"27,844 RLU × 10000/well"
same,Luciferase activity Ave. RLU × 10000/well FBS(−),[2]; charge ratio (+/−) 6,"24,089 RLU × 10000/well"
same,Luciferase activity Ave. RLU × 10000/well FBS(+),[2]; charge ratio (+/−) 8,"27,298 RLU × 10000/well"
same,Luciferase activity Ave. RLU × 10000/well FBS(−),[2]; charge ratio (+/−) 8,"24,150 RLU × 10000/well"
CCCCCCCCCCCCCCC(O)CN(CCN)CCCCCCCCNCCCN (stereo not drawn) [CGP44207A],Luciferase activity Ave. RLU × 10000/well FBS(+),[2]; charge ratio (+/−) 0.5,12 RLU × 10000/well
same,Luciferase activity Ave. RLU × 10000/well FBS(−),[2]; charge ratio (+/−) 0.5,12 RLU × 10000/well
same,Luciferase activity Ave. RLU × 10000/well FBS(+),[2]; charge ratio (+/−) 1,9 RLU × 10000/well
same,Luciferase activity Ave. RLU × 10000/well FBS(−),[2]; charge ratio (+/−) 1,11 RLU × 10000/well
same,Luciferase activity Ave. RLU × 10000/well FBS(+),[2]; charge ratio (+/−) 2,12 RLU × 10000/well
same,Luciferase activity Ave. RLU × 10000/well FBS(−),[2]; charge ratio (+/−) 2,15 RLU × 10000/well
same,Luciferase activity Ave. RLU × 10000/well FBS(+),[2]; charge ratio (+/−) 4,22 RLU × 10000/well
same,Luciferase activity Ave. RLU × 10000/well FBS(−),[2]; charge ratio (+/−) 4,28 RLU × 10000/well
same,Luciferase activity Ave. RLU × 10000/well FBS(+),[2]; charge ratio (+/−) 6,15 RLU × 10000/well
same,Luciferase activity Ave. RLU × 10000/well FBS(−),[2]; charge ratio (+/−) 6,22 RLU × 10000/well
same,Luciferase activity Ave. RLU × 10000/well FBS(+),[2]; charge ratio (+/−) 8,13 RLU × 10000/well
same,Luciferase activity Ave. RLU × 10000/well FBS(−),[2]; charge ratio (+/−) 8,17 RLU × 10000/well
CCCCCCCCCCCCCCCCCCN(CCCCCCCCCCCCCCCCCC)C(=O)[C@H](CSSC[C@H](NC(=O)[C@@H](N)CCCN)C(=O)N(CCCCCCCCCCCCCCCCCC)CCCCCCCCCCCCCCCCCC)NC(=O)[C@@H](N)CCCN.O=C(O)C(F)(F)F.O=C(O)C(F)(F)F.O=C(O)C(F)(F)F.O=C(O)C(F)(F)F [GC-025],Luciferase RLU/20 μl lysate heart,[1]; WR 2,33 RLU/20 μl lysate
same,Luciferase RLU/20 μl lysate kidney,[1]; WR 2,25 RLU/20 μl lysate
same,Luciferase RLU/20 μl lysate liver,[1]; WR 2,38 RLU/20 μl lysate
same,Luciferase RLU/20 μl lysate lung,[1]; WR 2,40 RLU/20 μl lysate
same,Luciferase RLU/20 μl lysate heart,[1]; WR 10,27 RLU/20 μl lysate
same,Luciferase RLU/20 μl lysate kidney,[1]; WR 10,28 RLU/20 μl lysate
same,Luciferase RLU/20 μl lysate liver,[1]; WR 10,27 RLU/20 μl lysate
same,Luciferase RLU/20 μl lysate lung,[1]; WR 10,30 RLU/20 μl lysate
same,Luciferase RLU/20 μl lysate spleen,[1]; WR 10,32 RLU/20 μl lysate
same,Luciferase RLU/20 μl lysate spleen,[1]; WR (lipid to DNA) 2,46 RLU/20 μl lysate
CCCCCCCCCCCCCCCCCCN(CCCCCCCCCCCCCCCCCC)C(=O)CC[C@H](NC(=O)[C@H](CCCNCCCN)NCCCN)C(=O)O.O=C(O)C(F)(F)F.O=C(O)C(F)(F)F.O=C(O)C(F)(F)F.O=C(O)C(F)(F)F [GC-033],Luciferase RLU/20 μl lysate heart,[1]; WR 2,31 RLU/20 μl lysate
same,Luciferase RLU/20 μl lysate kidney,[1]; WR 2,27 RLU/20 μl lysate
same,Luciferase RLU/20 μl lysate liver,[1]; WR 2,29 RLU/20 μl lysate
same,Luciferase RLU/20 μl lysate lung,[1]; WR 2,36 RLU/20 μl lysate
same,Luciferase RLU/20 μl lysate heart,[1]; WR 10,40 RLU/20 μl lysate
same,Luciferase RLU/20 μl lysate kidney,[1]; WR 10,41 RLU/20 μl lysate
same,Luciferase RLU/20 μl lysate liver,[1]; WR 10,46 RLU/20 μl lysate
same,Luciferase RLU/20 μl lysate lung,[1]; WR 10,42 RLU/20 μl lysate
same,Luciferase RLU/20 μl lysate spleen,[1]; WR 10,50 RLU/20 μl lysate
same,Luciferase RLU/20 μl lysate spleen,[1]; WR (lipid to DNA) 2,27 RLU/20 μl lysate
CCCCCCCCCCCCCCCCCCN(CCCCCCCCCCCCCCCCCC)C(=O)CNC(=O)[C@H](CCCN(CCCN)CCCN)N(CCCN)CCCN.O=C(O)C(F)(F)F.O=C(O)C(F)(F)F.O=C(O)C(F)(F)F.O=C(O)C(F)(F)F.O=C(O)C(F)(F)F.O=C(O)C(F)(F)F [GC-016],Luciferase RLU/20 μl lysate heart,[1]; WR 2,44 RLU/20 μl lysate
same,Luciferase RLU/20 μl lysate kidney,[1]; WR 2,41 RLU/20 μl lysate
same,Luciferase RLU/20 μl lysate liver,[1]; WR 2,38 RLU/20 μl lysate
same,Luciferase RLU/20 μl lysate lung,[1]; WR 2,45 RLU/20 μl lysate
same,Luciferase RLU/20 μl lysate heart,[1]; WR 10,40 RLU/20 μl lysate
same,Luciferase RLU/20 μl lysate kidney,[1]; WR 10,40 RLU/20 μl lysate
same,Luciferase RLU/20 μl lysate liver,[1]; WR 10,95 RLU/20 μl lysate
same,Luciferase RLU/20 μl lysate lung,[1]; WR 10,67 RLU/20 μl lysate
same,Luciferase RLU/20 μl lysate spleen,[1]; WR 10,230 RLU/20 μl lysate
same,Luciferase RLU/20 μl lysate spleen,[1]; WR (lipid to DNA) 2,40 RLU/20 μl lysate
CCCCCCCCCCCCCCCCCC(CCCCCCCCCCCCCCCCC)NC(=O)CNC(=O)CNC(=O)[C@H](CCCNCCCN)NCCCN.O=C(O)C(F)(F)F.O=C(O)C(F)(F)F.O=C(O)C(F)(F)F.O=C(O)C(F)(F)F [GC-038],Luciferase RLU/20 μl lysate heart,[1]; WR 2,101 RLU/20 μl lysate
same,Luciferase RLU/20 μl lysate kidney,[1]; WR 2,60 RLU/20 μl lysate
same,Luciferase RLU/20 μl lysate liver,[1]; WR 2,59 RLU/20 μl lysate
same,Luciferase RLU/20 μl lysate lung,[1]; WR 2,142 RLU/20 μl lysate
same,Luciferase RLU/20 μl lysate heart,[1]; WR 10,57 RLU/20 μl lysate
same,Luciferase RLU/20 μl lysate kidney,[1]; WR 10,58 RLU/20 μl lysate
same,Luciferase RLU/20 μl lysate liver,[1]; WR 10,93 RLU/20 μl lysate
same,Luciferase RLU/20 μl lysate lung,[1]; WR 10,63 RLU/20 μl lysate
same,Luciferase RLU/20 μl lysate spleen,[1]; WR 10,160 RLU/20 μl lysate
same,Luciferase RLU/20 μl lysate spleen,[1]; WR (lipid to DNA) 2,61 RLU/20 μl lysate
